Test system: DNA repair protein genes
Assay: DNA chip mRNA expression in yeast, DNA repair protein genes (Table 3)
Format: cell-based, Saccharomyces cerevisiae S288C
Settings: incubated two hours, concentrations as in the 1st table
Summary of the method: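 Measured as treated-to-untreated fluorescence ratio on a full-genome yeast DNA chip. Cells (S288C, YPD, 25° C.) were exposed in log phase for two hours to one chemical, dosed to curb growth without killing.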

Na2As [(1)]
The level of expressed mRNA in the presence of chemical substance/The level of expressed mRNA in the absence of chemical substance (yeast gene YAL015C): 1.2 | The level of expressed mRNA in the presence of chemical substance/The level of expressed mRNA in the absence of chemical substance (yeast gene YAR007C): 0.7 | The level of expressed mRNA in the presence of chemical substance/The level of expressed mRNA in the absence of chemical substance (yeast gene YBL019W): 0.9 | The level of expressed mRNA in the presence of chemical substance/The level of expressed mRNA in the absence of chemical substance (yeast gene YBR073W): 0.7 | The level of expressed mRNA in the presence of chemical substance/The level of expressed mRNA in the absence of chemical substance (yeast gene YBR272C): 0.8 | The level of expressed mRNA in the presence of chemical substance/The level of expressed mRNA in the absence of chemical substance (yeast gene YCR014C): 0.8 | The level of expressed mRNA in the presence of chemical substance/The level of expressed mRNA in the absence of chemical substance (yeast gene YDL017W): 0.8 | The level of expressed mRNA in the presence of chemical substance/The level of expressed mRNA in the absence of chemical substance (yeast gene YDL059C): 2.6 | The level of expressed mRNA in the presence of chemical substance/The level of expressed mRNA in the absence of chemical substance (yeast gene YDL200C): 1.4 | The level of expressed mRNA in the presence of chemical substance/The level of expressed mRNA in the absence of chemical substance (yeast gene YDR054C): 1.3 | The level of expressed mRNA in the presence of chemical substance/The level of expressed mRNA in the absence of chemical substance (yeast gene YDR369C): 1.1 | The level of expressed mRNA in the presence of chemical substance/The level of expressed mRNA in the absence of chemical substance (yeast gene YEL019C): 1.1 | The level of expressed mRNA in the presence of chemical substance/The level of expressed mRNA in the absence of chemical substance (yeast gene YEL037C): 0.9 | The level of expressed mRNA in the presence of chemical substance/The level of expressed mRNA in the absence of chemical substance (yeast gene YER162C): 1.0 | The level of expressed mRNA in the presence of chemical substance/The level of expressed mRNA in the absence of chemical substance (yeast gene YFL014W): 3.4 | The level of expressed mRNA in the presence of chemical substance/The level of expressed mRNA in the absence of chemical substance (yeast gene YGL058W): 1.1 | The level of expressed mRNA in the presence of chemical substance/The level of expressed mRNA in the absence of chemical substance (yeast gene YGL091C): 2.0 | The level of expressed mRNA in the presence of chemical substance/The level of expressed mRNA in the absence of chemical substance (yeast gene YGL127C): 1.0 | The level of expressed mRNA in the presence of chemical substance/The level of expressed mRNA in the absence of chemical substance (yeast gene YGL163C): 0.9 | The level of expressed mRNA in the presence of chemical substance/The level of expressed mRNA in the absence of chemical substance (yeast gene YGL249W): 1.4 | The level of expressed mRNA in the presence of chemical substance/The level of expressed mRNA in the absence of chemical substance (yeast gene YGR180C): 3.1 | The level of expressed mRNA in the presence of chemical substance/The level of expressed mRNA in the absence of chemical substance (yeast gene YGR231C): 1.0 | The level of expressed mRNA in the presence of chemical substance/The level of expressed mRNA in the absence of chemical substance (yeast gene YGR258C): 0.7 | The level of expressed mRNA in the presence of chemical substance/The level of expressed mRNA in the absence of chemical substance (yeast gene YHR164C): 0.9 | The level of expressed mRNA in the presence of chemical substance/The level of expressed mRNA in the absence of chemical substance (yeast gene YIL036W): 0.9 | The level of expressed mRNA in the presence of chemical substance/The level of expressed mRNA in the absence of chemical substance (yeast gene YIL072W): 0.8 | The level of expressed mRNA in the presence of chemical substance/The level of expressed mRNA in the absence of chemical substance (yeast gene YIL143C): 0.9 | The level of expressed mRNA in the presence of chemical substance/The level of expressed mRNA in the absence of chemical substance (yeast gene YIL153W): 0.8 | The level of expressed mRNA in the presence of chemical substance/The level of expressed mRNA in the absence of chemical substance (yeast gene YIR002C): 0.8 | The level of expressed mRNA in the presence of chemical substance/The level of expressed mRNA in the absence of chemical substance (yeast gene YJL026W): 2.5 | The level of expressed mRNA in the presence of chemical substance/The level of expressed mRNA in the absence of chemical substance (yeast gene YJR046W): 1.0 | The level of expressed mRNA in the presence of chemical substance/The level of expressed mRNA in the absence of chemical substance (yeast gene YJR052W): 1.1 | The level of expressed mRNA in the presence of chemical substance/The level of expressed mRNA in the absence of chemical substance (yeast gene YKL145W): 0.8 | The level of expressed mRNA in the presence of chemical substance/The level of expressed mRNA in the absence of chemical substance (yeast gene YLR103C): 0.8 | The level of expressed mRNA in the presence of chemical substance/The level of expressed mRNA in the absence of chemical substance (yeast gene YLR233C): 1.1 | The level of expressed mRNA in the presence of chemical substance/The level of expressed mRNA in the absence of chemical substance (yeast gene YLR288C): 1.2 | The level of expressed mRNA in the presence of chemical substance/The level of expressed mRNA in the absence of chemical substance (yeast gene YML032C): 0.8 | The level of expressed mRNA in the presence of chemical substance/The level of expressed mRNA in the absence of chemical substance (yeast gene YML058W): 1.9 | The level of expressed mRNA in the presence of chemical substance/The level of expressed mRNA in the absence of chemical substance (yeast gene YMR035W): 1.2 | The level of expressed mRNA in the presence of chemical substance/The level of expressed mRNA in the absence of chemical substance (yeast gene YMR072W): 1.1 | The level of expressed mRNA in the presence of chemical substance/The level of expressed mRNA in the absence of chemical substance (yeast gene YMR096W): 1.7 | The level of expressed mRNA in the presence of chemical substance/The level of expressed mRNA in the absence of chemical substance (yeast gene YMR284W): 1.1 | The level of expressed mRNA in the presence of chemical substance/The level of expressed mRNA in the absence of chemical substance (yeast gene YNL213C): 1.7 | The level of expressed mRNA in the presence of chemical substance/The level of expressed mRNA in the absence of chemical substance (yeast gene YNL250W): 0.9 | The level of expressed mRNA in the presence of chemical substance/The level of expressed mRNA in the absence of chemical substance (yeast gene YNL261W): 1.0 | The level of expressed mRNA in the presence of chemical substance/The level of expressed mRNA in the absence of chemical substance (yeast gene YNL312W): 0.9 | The level of expressed mRNA in the presence of chemical substance/The level of expressed mRNA in the absence of chemical substance (yeast gene YOL043C): 1.1 | The level of expressed mRNA in the presence of chemical substance/The level of expressed mRNA in the absence of chemical substance (yeast gene YOR005C): 1.2 | The level of expressed mRNA in the presence of chemical substance/The level of expressed mRNA in the absence of chemical substance (yeast gene YOR386W): 1.0 | The level of expressed mRNA in the presence of chemical substance/The level of expressed mRNA in the absence of chemical substance (yeast gene YPL022W): 0.7 | The level of expressed mRNA in the presence of chemical substance/The level of expressed mRNA in the absence of chemical substance (yeast gene YPL164C): 1.1 | The level of expressed mRNA in the presence of chemical substance/The level of expressed mRNA in the absence of chemical substance (yeast gene YPL194W): 0.9 | The level of expressed mRNA in the presence of chemical substance/The level of expressed mRNA in the absence of chemical substance (yeast gene YPR025C): 1.1
